Laboratory results as given in ChEMBL document CHEMBL6078655, “Engineering of Novel Analogues That Are More Receptor-Selective and Potent than the Native Hormone, Insulin-like Peptide 5 (INSL5)” (J Med Chem, 2024).
pEC50, pKi: −log10 of the molar value. The source made the active and inactive calls. The rule behind the calls is not given here. Where a SMILES comes first, the peptide text is derived from it. Bridges are numbered along the chain shown (N, C = ends). Roman numbers before positions name the chains, in order. [ ]: non-standard residue; d: D form. 1Nal = N[C@@H](Cc1cccc2ccccc12)C(=O)O; Agb = N=C(N)NCC[C@H](N)C(=O)O

Tests used:
Relaxin-3 receptor 2 [1] = target: T1, Relaxin-3 receptor 2 (Homo sapiens, UniProt Q8TDU9); test: Binding affinity to LgBiT-tagged RXFP4 (unknown origin) expressed in HEK cells assessed as inhibition constant incubated for 1 hr by NanoBiT assay; type: cell-based
T1 sequence (Q8TDU9 whole entry): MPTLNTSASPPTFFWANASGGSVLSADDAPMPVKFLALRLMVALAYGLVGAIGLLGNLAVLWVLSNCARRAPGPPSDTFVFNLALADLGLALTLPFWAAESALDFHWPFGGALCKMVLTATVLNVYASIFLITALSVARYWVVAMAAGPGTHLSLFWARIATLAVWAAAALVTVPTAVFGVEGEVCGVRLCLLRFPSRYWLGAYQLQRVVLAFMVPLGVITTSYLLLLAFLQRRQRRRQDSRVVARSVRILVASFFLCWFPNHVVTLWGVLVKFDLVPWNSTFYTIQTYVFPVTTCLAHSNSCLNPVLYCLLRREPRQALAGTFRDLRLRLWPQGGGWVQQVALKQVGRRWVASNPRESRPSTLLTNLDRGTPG

[2] = Selectivity index, ratio of Ki for binding affinity to SmBit-tagged RXFP3 (unknown origin) expressed in HEK cells assessed as inhibition constant to Ki for binding affinity to LgBiT-tagged RXFP4 (unknown origin) expressed in HEK cells assessed as inhibition constant; type: cell-based
Relaxin-3 receptor 1 [3] = target: T2, Relaxin-3 receptor 1 (Homo sapiens, UniProt Q9NSD7); test: Binding affinity to SmBit-tagged RXFP3 (unknown origin) expressed in HEK cells assessed as inhibition constant incubated for 1 hr by NanoBiT assay; type: cell-based; conditions: for pKi: read-out: Ki
T2 sequence (Q9NSD7 whole entry): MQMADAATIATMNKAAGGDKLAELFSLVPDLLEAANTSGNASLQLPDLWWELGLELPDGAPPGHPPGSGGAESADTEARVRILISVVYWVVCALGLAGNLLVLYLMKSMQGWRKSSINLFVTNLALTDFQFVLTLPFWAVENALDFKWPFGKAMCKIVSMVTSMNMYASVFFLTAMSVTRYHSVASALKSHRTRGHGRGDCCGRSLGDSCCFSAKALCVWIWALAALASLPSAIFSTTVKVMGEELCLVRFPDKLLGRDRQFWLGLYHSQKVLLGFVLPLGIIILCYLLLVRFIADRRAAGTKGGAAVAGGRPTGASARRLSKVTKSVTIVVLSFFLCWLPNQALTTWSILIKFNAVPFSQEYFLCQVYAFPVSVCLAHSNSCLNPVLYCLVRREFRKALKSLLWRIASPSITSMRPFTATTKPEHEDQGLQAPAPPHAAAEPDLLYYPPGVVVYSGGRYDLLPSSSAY

[4] = target: T3, Relaxin-3 receptor 1 (Homo sapiens) (UniProt Q9NSD7); test: (§1) Agonist activity at RXFP3 (unknown origin) expressed in CHO cells co-transfected with pCRE-galactosidase reporter plasmid assessed as inhibition of forskolin-induced cAMP accumulation incubated for 6 hrs by reporter gene assay; type: functional, cell-based
T3 sequence (whole entry): T2 sequence (Q9NSD7 whole entry)

Relaxin-3 receptor 2 [5] = target: T1, Relaxin-3 receptor 2; test: Agonist activity at RXFP4 (unknown origin) expressed in CHO cells co-transfected with pCRE-galactosidase reporter plasmid assessed as inhibition of forskolin-induced cAMP accumulation incubated for 6 hrs by reporter gene assay; type: functional, cell-based; conditions: for pEC50: read-out: EC50
Relaxin-3 receptor 2 [6] = target: T1, Relaxin-3 receptor 2; test: Agonist activity at RXFP4 in HEK293T cells assessed as beta-arrestin2 recruitment pretreated with coelenterazine for 10 mins followed by compound addition by BRET assay; type: functional, cell-based
Relaxin-3 receptor 2 [7] = target: T1, Relaxin-3 receptor 2; test: Antagonist activity at RXFP4 in HEK293T cells assessed as beta-arrestin2 recruitment pretreated with coelenterazine for 10 mins followed by compound addition by BRET assay; type: functional, cell-based
Relaxin-3 receptor 1 [8] = target: T2, Relaxin-3 receptor 1; test: as §1; type: functional, cell-based

Structure (SMILES)	pKi (Relaxin-3 receptor 2 [1])	Ratio Ki [2]	pKi (Relaxin-3 receptor 1 [3])	Ki (Relaxin-3 receptor 1 [3]; read-out: pKi (converted))	Activity [4]	pEC50 (Relaxin-3 receptor 2 [5])	pEC50 (Relaxin-3 receptor 2 [6])	Activity (Relaxin-3 receptor 2 [7])	pEC50 (Relaxin-3 receptor 1 [8]; cho, read-out: EC50)	EC50 (Relaxin-3 receptor 1 [8]; read-out: pEC50 (converted))	EC50 (Relaxin-3 receptor 2 [5]; read-out: pEC50 (converted))
CC[C@H](C)[C@@H]1NC(=O)[C@H](Cc2ccc(O)cc2)NC(=O)[C@H]([C@@H](C)CC)NC(=O)[C@H](C(C)C)NC(=O)[C@H]([C@@H](C)O)NC(=O)[C@H](CCCNC(=N)N)NC(=O)[C@H]([C@@H](C)CC)NC(=O)[C@H](Cc2ccc(O)cc2)NC(=O)[C@H](CCC(=O)O)NC(=O)[C@H](CC(C)C)NC(=O)CNC(=O)[C@@H](NC(=O)[C@H](CC(C)C)NC(=O)[C@H](CCCNC(=N)N)NC(=O)[C@@H](NC(=O)[C@H](CO)NC(=O)[C@H](CCC(=O)O)NC(=O)[C@@H](N)CCCCN)C(C)C)CSSC[C@H](N)C(=O)N[C@@H]([C@@H](C)O)C(=O)N[C@@H](CC(=O)O)C(=O)NCC(=O)N[C@@H](CS)C(=O)N[C@H](CO)C(=O)N[C@@H](CCSC)C(=O)N[C@@H](CCCCN)C(=O)N[C@@H](CC(=O)O)C(=O)N[C@@H](CC(C)C)C(=O)N[C@@H](CO)C(=O)N[C@@H](C)C(=O)N[C@@H](CC(C)C)C(=O)N[C@H](C(=O)O)CSSC[C@@H](C(=O)N[C@@H](C)C(=O)N[C@@H](CO)C(=O)N[C@@H](CO)C(=O)N[C@@H](CCCNC(=N)N)C(=O)N[C@@H](Cc2c[nH]c3ccccc23)C(=O)O)NC1=O	8.11	38	6.71	295 nM	inactive	8.10	7.21				
CC[C@H](C)[C@@H]1NC(=O)[C@H](Cc2ccc(O)cc2)NC(=O)[C@H]([C@@H](C)CC)NC(=O)[C@H](C(C)C)NC(=O)[C@H]([C@@H](C)O)NC(=O)[C@H](CCCNC(=N)N)NC(=O)[C@H]([C@@H](C)CC)NC(=O)[C@H](Cc2ccc(O)cc2)NC(=O)[C@H](CCC(=O)O)NC(=O)[C@H](CC(C)C)NC(=O)CNC(=O)[C@@H](N)CSSC[C@H](N)C(=O)N[C@@H]([C@@H](C)O)C(=O)N[C@@H](CC(=O)O)C(=O)NCC(=O)N[C@@H](CS)C(=O)N[C@H](CO)C(=O)N[C@@H](CCSC)C(=O)N[C@@H](CCCCN)C(=O)N[C@@H](CC(=O)O)C(=O)N[C@@H](CC(C)C)C(=O)N[C@@H](CO)C(=O)N[C@@H](C)C(=O)N[C@@H](CC(C)C)C(=O)N[C@H](C(=O)O)CSSC[C@@H](C(=O)N[C@@H](C)C(=O)N[C@@H](CO)C(=O)N[C@@H](CO)C(=O)N[C@@H](CCCNC(=N)N)C(=O)N[C@@H](Cc2c[nH]c3ccccc23)C(=O)O)NC1=O	8.06	49	6.37		inactive	8.08					
CC[C@H](C)[C@@H]1NC(=O)[C@H](Cc2ccc(O)cc2)NC(=O)[C@H]([C@@H](C)CC)NC(=O)[C@H](C(C)C)NC(=O)[C@H]([C@@H](C)O)NC(=O)[C@H](CCCNC(=N)N)NC(=O)[C@H]([C@@H](C)CC)NC(=O)[C@H](Cc2ccc(O)cc2)NC(=O)[C@H](CCC(=O)O)NC(=O)[C@H](CC(C)C)NC(=O)CNC(=O)[C@@H](N)CSSC[C@H](N)C(=O)N[C@@H]([C@@H](C)O)C(=O)N[C@@H](CC(=O)O)C(=O)NCC(=O)N[C@@H](C)C(=O)N[C@@H](CO)C(=O)N[C@@H](CCSC)C(=O)N[C@@H](CCCCN)C(=O)N[C@@H](CC(=O)O)C(=O)N[C@@H](CC(C)C)C(=O)N[C@@H](CO)C(=O)N[C@@H](C)C(=O)N[C@@H](CC(C)C)C(=O)N[C@H](C(=O)O)CSSC[C@@H](C(=O)NCC(=O)NCC(=O)N[C@@H](CO)C(=O)N[C@@H](CCNC(=N)N)C(=O)N[C@@H](Cc2cccc3ccccc23)C(=O)O)NC1=O (I: H-CGLEYIRTVIYICGGS[Agb][1Nal]-OH / II: H-CTDGASMKDLSALC-OH; disulfide I:1-II:1, I:13-II:14)	8.88	1660	5.66				7.39	inactive	< 5.00	> 10000 nM	9.12 nM
